# Results as given in US20090131406A1 (BAYER CROPSCIENCE AG, priority 2005, published 2009).
# How the values were obtained:
# Assay in all cases: LIVE/DEAD cytotoxicity assay, inhibition of cell proliferation
# Assay type in all cases: cell-based, human
# SW620 cells = settings: Homo sapiens, SW-620, 48 h, read-out: log GI50 values (M), SW620 cells (converted)
# Protocol: (§1) The compounds of the general formula (I) according to the invention were tested for a possible cytotoxic or proliferation-inhibiting activity on the human tumour cell lines HeLa, SW620 and A375 (all from ATTC, American Type Culture Collection). To this end, the cells were plated in microtitre plates from Greiner (Manufacturer No. 781092) at a cell density of 1000 cells/microtitre plate well and cultivated in cell culture medium at 37° C. under a 5% carbon dioxide atmosphere. Cell culture media and additives were purchased from Invitrogen and the foetal calf serum from Biochrom. The cell culture media for Hela and A375 cells were used as stated by ATCC (HeLa: MEM, Order No. 10370-047, with 1% sodium bicarbonate, 1% non-essential amino acids, 1% sodium pyruvate, 10% foetal calf serum, 0.1% gentamycin; A375: DMEM, Order No. 41965-039, 2% sodium bicarbonate, 1% L-Glutamax, 10% foetal calf serum, 0.1% gentamycin). The culture medium for the SW620 cells consisted of DMEM, Order No. 41965-039, 1% non-essential amino acids, 10% foetal calf serum, 0.1% gentamycin.
# (§2) 24 hours after the cells had been plated in the microtitre plates, various concentrations of at most 100 μM down to a minimum concentration of 5 nM of the test compounds were added to the cells. Stock solutions of the test compounds (10 mM) were prepared in DMSO and stored at −20° C.; for the cytotoxicity tests, the test compounds were diluted in the appropriate cell culture medium.
# (§3) After a further 48 hours of incubation, the cells were washed with medium and analysed with the aid of a two-colour fluorescence cytotoxicity/viability test (LIVE/DEAD viability/cytotoxicity ASSAY kit from Molecular Probes, Order No. L-3224), according to the instructions of the manufacturer. To this end, the medium was aspirated and in each case 30 μl of LIVE/DEAD reagent per microtitre plate well were added to the cells, which were then incubated for 30 minutes. The cells were then washed with PBS (phosphate-buffered saline). The number of live cells was analysed by measuring the green fluorescence of the live dye calcein-AM as a component of the LIVE/DEAD reagent using a fluorescence plate reader (Flexstation, from Molecular Devices) at an excitation wavelength of 485 nm and an emission wavelength of 525 nm (cf. Oral, H. B. Endothelium 6, (1998), 143-151).
# (§4) Cells only with cell culture medium, without added test compounds, were treated in parallel and analysed as growth controls. The reference compounds used for anti-tumour agents having a cytotoxic or proliferation-inhibiting action were colchicine (from Merck/Calbiochem, Order No. 234115) and Taxol (baccatin III N-benzyl-b-phenylisoserine ester, from Merck/Calbiochem, Order No. 580555) (cf. Schiff, P. B. and Horwitz, S. B., Proceedings of the National Academy of Sciences of the U.S.A. 77, 1561-1565, 1980; Holmes, F. A. et al., Journal of the National Cancer Institute 83, 1797-1805, 1991).
# (§5) The cytotoxic effects of the test compounds were expressed as logarithmic GI50 values (growth-inhibiting logarithmic concentration value at which a cell growth reduced by 50% compared to the control without test compounds was measured (cf. Xia et al., Journal of Medicinal Chemistry 44, 3932-3936, 2001; Smith, J. A. et al., Gynecologic Oncology 98, 141-145, 2005)).
# A375 cells = settings: Homo sapiens, A-375, 48 h, read-out: log GI50 values (M), A375 cells (converted)
# Protocol: as §1, §2, §3, §4, §5
# HeLa cells = settings: Homo sapiens, 48 h, read-out: log GI50 values (M), HeLa cells (converted)
# Protocol: as §1
# 24 hours after the cells had been plated in the microtitre plates, various concentrations of at most 100 μM down to a minimum concentration of 5 nM of the test compounds were added to the cells. […]
# as §3, with “To this end, the medium was aspirated and in each case 30 μl of LIVE/DEAD reagent per microtitre plate well were added to the cells, which were then incubated for 30 minutes. The cells were then washed with PBS (phosphate-buffered saline).” left out
# Cells only with cell culture medium, without added test compounds, were treated in parallel and analysed as growth controls. […]
structure (smiles),measurement,setting,value
"COc1cc2c(c(OC)c1OC)-c1ccc(OC)c(=O)cc1[C@@H](NC(C)=O)CC2 [Colchicine, colchicine]",GI50,SW620 cells,1.26e-08 M
same,GI50,A375 cells,2e-08 M
same,GI50,HeLa cells,1.58e-08 M
